Laboratory results as given in patent US12012411B2, “Viral replication inhibitors” (Katholieke Universiteit Leuven, priority 2011, dated 2024).

Assays:
DENV-2 NGC = assay: Antiviral activity against DENV-2 NGC in Vero-B cells (viral RNA load by RT-qPCR); format: cell-based, Dengue virus; conditions: Dengue virus, DENV2, Vero B, DENV-2 in Vero-B cells; inhibition of viral RNA replication by 50% (Table 3)
in vitro = conditions: African green monkey; for CC50 at 4 days: uninfected quiescent Vero-B cells

Structure (SMILES) | EC50 (DENV-2 NGC) [µM] | CC50 at 4 days (in vitro) [µM] | CC50 (in vitro) [µM]
COc1cc(NC(C(=O)c2c[nH]c3ccccc23)c2cccnc2)ccn1 (stereo not shown) [CPD-074] | 0.81 | 77 | –
COc1cc(NC(C(=O)c2c[nH]c3cc(C#N)ccc23)c2ccccc2)ccn1 (stereo not shown) [CPD-093] | 16.8 | 87 | –
COc1cncc(NC(C(=O)c2nn(C)c3ccccc23)c2ccccc2)c1 (stereo not shown) [CPD-259] | 0.54 | 14 | –
O=C(c1c[nH]c2ccccc12)C(Nc1ccnc(O)c1)c1ccccc1 (stereo not shown) [CPD-031] | 50.2 | > 145 | –
COc1cccc(NC(C(=O)c2cn(S(=O)(=O)C3CCNCC3)c3ccccc23)c2ccccc2)c1 (stereo not shown) [CPD-217] | 0.25 | 11 | –
COc1cccc(NC(C(=O)c2c[nH]c3ccccc23)c2ccc3c(c2)n(C)c(=O)n3C)c1 (stereo not shown) [CPD-060] | 10.3 | > 113 | –
CCOc1cncc(NC(C(=O)c2c[nH]c3ccccc23)c2ccccc2)c1 (stereo not shown) [CPD-246] | 0.32 | 16 | –
COc1cccc(N2C(=O)CN(C)n3cc(c4ccccc43)C(=O)C2c2ccccc2)c1 (stereo not shown) [CPD-115] | 10.6 | 49 | –
COc1cccc(NC(C(=O)c2cn(CC(=O)O)c3ccccc23)c2ccccc2)c1 (stereo not shown) [CPD-106] | 8.93 | – | > 120
COc1cccc(NC(C(=O)c2c[nH]c3ccccc23)c2cnccn2)c1 (stereo not shown) [CPD-274] | 0.39 | 100 | –
NS(=O)(=O)c1cccc(NC(C(=O)c2c[nH]c3ccccc23)c2ccccc2)c1 (stereo not shown) [CPD-187] | 3.18 | 58 | –
COc1cccc(NC(C(=O)c2c[nH]c3ccccc23)c2cn3cccc(C)c3n2)c1 (stereo not shown) [CPD-088] | 2.53 | > 121 | –
O=C(c1c[nH]c2ccccc12)C(NCc1ccccn1)c1ccccc1 (stereo not shown) [CPD-032] | 55.5 | > 146 | –
COc1cncc(NC(C(=O)c2c[nH]c3cc(F)ccc23)c2ccccc2)n1 (stereo not shown) [CPD-287] | 0.44 | > 132 | –
COc1cncc(NC(C(=O)c2c[nH]c3ccccc23)c2cc3ccccn3n2)n1 (stereo not shown) [CPD-290] | 0.88 | > 125 | –
COc1cccc(NC(C(=O)c2cn(S(C)(=O)=O)c3ccccc23)c2ccccc2)c1 (stereo not shown) [CPD-111] | 0.44 | > 115 | –
CC(NC(C(=O)c1c[nH]c2ccccc12)c1ccccc1)c1ccco1 (stereo not shown) [CPD-180] | 57 | > 145 | –
COc1cccc(NC(C(=O)c2c[nH]c3cc(O)ccc23)c2ccccc2)c1 (stereo not shown) [CPD-134] | 0.46 | 49 | –
COc1cccc(NC(C(=O)c2cn(CCN)c3ccccc23)c2ccccc2)c1 (stereo not shown) [CPD-105] | 1.23 | – | 14
O=C(c1c[nH]c2ccccc12)C(Nc1ccc2nccnc2c1)c1ccccc1 (stereo not shown) [CPD-050] | 2.4 | 87 | –

Structure (SMILES) | EC50 (DENV-2 NGC) [µM] | CC50 at 4 days (in vitro) [µM] | CC50 (in vitro) [µM]
COc1cccc(NC(C(=O)c2c[nH]c3ccccc23)c2ccc(COCN(C)C)cc2)c1 (stereo not shown) [CPD-112] | 3.27 | 12 | –
COc1cccc(NC(C(=O)c2c[nH]c3c(C)cccc23)c2ccccc2)c1 (stereo not shown) [CPD-224] | 0.05 | > 134 | –
O=C(c1c[nH]c2ccccc12)C(Nc1ccc(F)c(F)c1)c1ccccc1 (stereo not shown) [CPD-007] | 2.53 | 5 | –
COc1cccc(NC(C(=O)c2cnc3ccccn23)c2ccccc2)c1 (stereo not shown) [CPD-196] | 62.6 | > 139 | –
COc1cc(NC(C(=O)c2c[nH]c3ccccc23)c2ccccc2)ccc1C#N (stereo not shown) [CPD-218] | 2.39 | 13 | –
COc1cc(NC(C(=O)c2c[nH]c3ccccc23)c2ccccc2)ccc1F (stereo not shown) [CPD-356] | 0.12 | 13 | –
COc1cccc(NC(C(=O)c2cn(C)c3ccccc23)c2cc(C)on2)c1 (stereo not shown) [CPD-117] | 3.57 | > 133 | –
O=C(c1c[nH]c2ccccc12)C(Nc1cccc(C(F)(F)F)c1)c1ccccc1 (stereo not shown) [CPD-009] | 0.66 | 4 | –
COc1cc(NC(C(=O)c2c[nH]c3ccccc23)c2ccc(C)cc2)cc(OCCO)c1 (stereo not shown) [CPD-369] | 0.01 | 11 | –
COc1cccc(NC(C(=O)c2c[nH]c3ccccc23)c2ccc(OC(C)C)nc2)c1 (stereo not shown) [CPD-268] | 0.46 | 15 | –
COc1cc(OC)nc(NC(C(=O)c2c[nH]c3ccccc23)c2ccccc2)n1 (stereo not shown) [CPD-347] | 0.98 | 6 | –
COc1cccc(NC(C(=O)c2c[nH]c3ccccc23)c2cc3n(n2)CCOC3)c1 (stereo not shown) [CPD-311] | 2.58 | 77 | –
COc1cc(NC(C(=O)c2c[nH]c3c(Cl)cccc23)c2ccccc2)ccn1 (stereo not shown) [CPD-101] | 4.9 | 11 | –
COc1cc(NC(C(=O)c2c[nH]c3ccccc23)c2cscn2)ccn1 (stereo not shown) [CPD-082] | 61.9 | 109 | –
O=C(c1c[nH]c2ccccc12)C(Nc1cccc(O)c1)c1ccccc1 (stereo not shown) [CPD-366] | 0.26 | 78 | –
COc1cccc(NC(C(=O)c2c[nH]c3ccccc23)c2ccc(C#N)c(F)c2)c1 (stereo not shown) [CPD-132] | 0.05 | 12 | –
COc1cc(NC(C(=O)c2c[nH]c3ccccc23)c2ccccc2)cnc1N(C)C (stereo not shown) [CPD-257] | 0.45 | 17 | –
COc1cccc(NC(C(=O)c2c[nH]c3ccccc23)c2ccc(CO)cc2)c1 (stereo not shown) [CPD-127] | 2.15 | 72 | –
COc1cccc(NC(C(=O)c2c[nH]c3ccccc23)c2ccc(CN(C)C)cc2)c1 (stereo not shown) [CPD-124] | 0.56 | 3 | –
COc1cccc(NC(C(=O)c2c[nH]c3ccc(CN(C)C)cc23)c2ccccc2)c1 (stereo not shown) [CPD-228] | 1.62 | 13 | –

Structure (SMILES) | EC50 (DENV-2 NGC) [µM] | CC50 at 4 days (in vitro) [µM] | CC50 (in vitro) [µM]
COc1cccc(N(C)C(C(=O)c2c[nH]c3ccccc23)c2ccccc2)c1 (stereo not shown) [CPD-018] | 0.37 | 19 | –
COc1ccnc(NC(C(=O)c2c[nH]c3ccccc23)c2ccccc2)n1 (stereo not shown) [CPD-089] | 0.67 | > 139 | –
COc1cc(NC(C(=O)c2cn(C)c3ccccc23)c2ccccc2)ccn1 (stereo not shown) [CPD-100] | 12 | 42 | –
COc1cccc(NC(C(=O)c2c[nH]c3ccccc23)c2cn3c(n2)COCC3)c1 (stereo not shown) [CPD-080] | 0.99 | > 124 | –
COc1cccc(NC(C(=O)c2c[nH]c3ccc(S(=O)(=O)N(C)C)cc23)c2ccccc2)c1 (stereo not shown) [CPD-129] | 1.09 | > 108 | –
COc1cncc(NC(C(=O)c2c[nH]c3ccccc23)c2cccnc2)n1 (stereo not shown) [CPD-280] | 0.78 | > 139 | –
O=C(c1c[nH]c2ccccc12)C(Nc1ccnc(F)c1)c1ccccc1 (stereo not shown) [CPD-207] | 3.83 | 16 | –
CCOC(=O)Cn1cc(C(=O)C(Nc2cccc(OC)c2)c2ccccc2)c2ccccc21 (stereo not shown) [CPD-113] | 0.49 | – | > 112
O=C(c1c[nH]c2ccccc12)C(NCc1ccco1)c1ccccc1 (stereo not shown) [CPD-034] | 46.5 | > 151 | –
CC(C)Oc1cncc(NC(C(=O)c2c[nH]c3ccccc23)c2ccccc2)c1 (stereo not shown) [CPD-247] | 0.42 | 15 | –
CCOc1ccc(C(Nc2cccc(OC)c2)C(=O)c2c[nH]c3ccccc23)cn1 (stereo not shown) [CPD-250] | 0.22 | 15 | –
COc1ccc(C(Nc2cncc(OC)n2)C(=O)c2c[nH]c3ccccc23)cn1 (stereo not shown) [CPD-284] | 0.62 | 74 | –
COc1cccc(NC(C(=O)c2c[nH]c3ccccc23)c2cccc3cnccc23)c1 (stereo not shown) [CPD-047] | 0.42 | 16 | –
CCc1cccc(NC(C(=O)c2c[nH]c3ccccc23)c2ccccc2)c1 (stereo not shown) [CPD-046] | 0.65 | 17 | –
COc1cncc(NC(C(=O)c2c[nH]c3c(CCO)cccc23)c2ccccc2)c1 (stereo not shown) [CPD-364] | 1.12 | 62 | –
COc1cccc(NC(C(=O)c2c[nH]c3cc(CO)ccc23)c2ccccc2)c1 (stereo not shown) [CPD-140] | 2.15 | 53 | –
CCOc1cccc(NC(C(=O)c2c[nH]c3ccccc23)c2ccccc2)c1 (stereo not shown) [CPD-003] | 0.11 | 13 | –
COc1cccc(NC(C(=O)c2c[nH]c3ccccc23)c2cn3ccc(C)cc3n2)c1 (stereo not shown) [CPD-096] | 2.9 | > 121 | –
CCc1cccc2c(C(=O)C(Nc3ccc(NC(=O)CN4CCOCC4)cc3)c3ccccc3)c[nH]c12 (stereo not shown) [CPD-186] | 4.35 | 40 | –
